From US20090176817A1, “Method of Treatment of Diarrhea-Predominant Irritable Bowel Syndrome in a Subject” (priority 2005, published 2009)

Experiments:
[1] = male, human, in vivo
Description: Subjects were treated with a single oral dose of cilansetron 8 mg (tablet) on Day 1, followed by 8 mg TID for 5 days (Days 2-6) and a single 8 mg dose on the morning of Day 7. Young subjects ranged in age from 19-45 years, and elderly from 66-79 years. Serial blood samples were collected up to 24 hours postdose on Days 1 and 7, and cilansetron pharmacokinetic parameters were calculated. Doses on pharmacokinetic sampling days were administered under fasted conditions.
Young subjects ranged in age from 19-45 years, and elderly from 66-79 years. Serial blood samples were collected up to 24 hours postdose on Days 1 and 7, and cilansetron pharmacokinetic parameters were evaluated. Doses on pharmacokinetic sampling days were administered under fasted conditions.

[2] = test system: healthy, elderly subjects; test: Study K.241.5013: colonic transit time, elderly, 4 mg TID; type: in vivo, human; details: 4 mg TID oral 14 days, mean (SD)
Excerpt: The effect of cilansetron on gastric emptying time and colonic transit time has been studied in 1 clinical study in healthy young subjects and 2 studies in elderly subjects. For measurement of gastric emptying time, breath samples for the determination of the ^12C/^13C ratio were taken on the last day of each treatment period immediately after ingestion of a ^13C labeled meal. The patients' breath was collected in separate 15-minute intervals, for four hours in total. ^13CO2 measurements were performed with an isotope ratio mass spectrometer. The half-life (TK) and lag-time (Tlag), which describe the duration of gastric emptying, were used as the primary parameters to evaluate gastric emptying time. In all 3 studies, colonic transit time was measured by administration of radio-opaque markers for the last six days of each treatment period, followed by a single abdominal X-ray image at 24 hours after ingestion of the last set of markers. The numbers of markers within the colon were used to calculate segmental (right colon, left colon, and rectosigmoid) and total colonic transit time.
Studies K.241.5013 and K.241.5014 were randomized, double-blind, placebo-controlled, 2-way crossover studies in 8 healthy male and female elderly subjects, each (ITT population, aged 64-83 years in K.241.5013 and 66-84 years in K.241.5014). Elderly subjects were selected for these studies because they commonly suffer from constipation and it was of interest whether cilansetron would prolong gastrointestinal transit times in this population. Subjects received cilansetron 4 mg or placebo in Study K.241.5013 and cilansetron 8 mg or placebo in Study K.241.5014. Treatments were administered orally TID for 14 days during each period, with a 14-day washout between periods. The primary efficacy parameter was the total mean colonic transit time during each treatment and the secondary parameters were the segmental colonic transit times and the gastric emptying measurements. One-sided t-tests were used to compare efficacy parameters between the cilansetron and placebo treatments.

clinical [3] = details: both, human, in vivo, 2 mg
Description: The effect of renal impairment on the pharmacokinetics of cilansetron was evaluated in a study excluding subjects with end-stage renal disease, and utilizing a single-center, open-label, multiple-dose, parallel group study in 13 male and 9 female subjects, aged 33-74 years. […] Healthy subjects were matched to renally-impaired subjects with respect to age, weight, gender, and smoking status. All subjects received oral cilansetron 2 mg TID on Days 1 to 5, and a single dose on the morning of Day 6. Blood samples for measurement of plasma pharmacokinetics of cilansetron and its 4-hydroxy metabolites were collected up to 24 hours following dosing on Day 6, and log-transformed pharmacokinetic parameters for these analytes were statistically compared between study groups. Serum concentrations of unbound cilansetron and its 4-hydroxy metabolites were also measured prior to dosing and at 1 and 1.5 hours postdose on Day 6.

[4] = test system: diarrhea-predominant IBS subjects; test: Study S241.3.009: safety; type: in vivo, human; parameters: Incidence of bilirubin increase: dose or concentration left out as unconfirmed; details: for Constipation: human, 26 weeks
Excerpt: The primary efficacy parameter was the overall response rate for IBS symptoms, based on the weekly question concerning adequate relief of IBS symptoms (abdominal pain/discomfort, abnormal bowel habits) over the 26 weeks period. A responder was a subject who responded “yes” at least 50% of the time during his/her treatment period, with minimum treatment duration of four weeks. The two main secondary efficacy parameters were overall responder rate based on the weekly question on adequate relief of abdominal pain/discomfort and abnormal bowel habits during the 26-week treatment period. The onset of action of cilansetron was also examined using daily diary data (stool frequency, and ratings of urgency and severity) during the initial 8 weeks of trial participation. An additional key secondary efficacy parameter was the number of months (one month equals four weeks) up to six months (24-weeks) that a subject was a responder for IBS symptoms, where a responder was defined as a subject who answered the weekly question with “yes” at least twice for that month. The responder rate for the weekly diary questions on adequate relief at each month and all months, the adequate relief rate, the number of subjects with adequate relief by week, daily diary questions, IBS-QOL scores, and the interruption of activities were also assessed. Safety was evaluated by physical examination, ECG, vital signs, laboratory evaluations, concomitant medications, and AEs.

[5] = test system: diarrhea-predominant IBS subjects; test: Study S241.3.009: interruption of activities assessment; type: in vivo, human; details: for Percentage of Subjects Who Worsened from Baseline: Interruption of Activities: S241.3.009, 2 mg TID, observed value
Excerpt: Studies S24 1.3.OO6, S24 1.3.0 1 1, and S24 1.3.009 used the following efficacy measurements: • The subjects answered the following three questions with “yes” or “no” using a phone diary at the end of each week: • a) During the last week, did you experience adequate relief of your IBS symptoms, such as abdominal pain, abdominal discomfort, abnormal bowel habits? • b) During the last week, did you experience adequate relief of your abdominal pain and/or discomfort? • c) During the last week, did you experience adequate relief of your abnormal bowel habits? • The subjects rated the following symptoms using the phone diary at the end of each day: • abdominal pain/discomfort (five-point scale); • stool consistency (seven-point Bristol Stool Scale); • stool frequency (number of bowel movements each day); • urgency (five-point scale); • straining (yes or no); • feeling of incomplete defecation (yes or no); • bloating or feeling of abdominal distension (five-point scale). • In Studies S241 A006 and S241.3.009, subjects completed the IBS-QOL Survey at Baseline (Day 1) and at the end of treatment. In Study S24 1.3.0 1 1, subjects completed the IBS-QOL Survey at Baseline (Day 1), at the end of the three-month treatment period, and at the end of rerandomized treatment.
Other secondary efficacy parameters for all three studies included: • Responder rate for the weekly diary questions on adequate relief at each month, where a responder for a month (monthly responder) was defined as a subject who answered the weekly question with “yes” at least twice for that month. The responder rate was the percentage of responders within a treatment group. The all-month responder rate for the weekly diary questions on adequate relief was also evaluated, where an all-month responder was defined as a subject who answered the weekly question with “yes” at least twice for each month. The all-month responder rate was the percentage of all-month responders within a treatment group; • Adequate relief rate for the weekly diary questions was calculated for each subject as the number of weekly assessments with adequate relief (“yes”) divided by the total number of weekly assessments; • Percentage of subjects with adequate relief for the weekly diary questions at each week; • Daily diary questions regarding abdominal pain/discomfort (five-point scale), stool consistency (seven-point scale), stool frequency (number of bowel movements each day), straining (yes or no), urgency (five-point scale), feeling of incomplete evacuation (yes or no), and bloating or feeling of abdominal distention (five-point scale); • QOL data assessed by the IBS-QOL questionnaire; and • Question to determine the interruption of activities.

clinical [6] = type: in vitro ADME; details: both sexes, human, serum, % free in serum
Description: Steady state serum samples for measurement of cilansetron protein binding were collected at predose, and 1 and 1.5 hours postdose on Day 6.

## Cc1nccn1C[C@H]1CCc2c(c3cccc4c3n2CCC4)C1=O [Cilansetron, (R)-(−)-4,5,6,8,9,10-hexahydro-10-[(2-methyl-1H-imidazol-1-yl)methyl]-11H-pyrido-[3,2,1-jk]-carbazol-11-one]
[1]
  AUC(0-inf): 252 (123) ng · h/mL
[2]
  Transit Times, Colon Total: 55.5 (41.3) hours
  Transit Times, Colonic Segments Left: 21.9 (16.0) hours
  Transit Times, Colonic Segments Rectosigmoid: 6.3 (8.3) hours
  Transit Times, Colonic Segments Right: 27.3 (29.2) hours
Clinical [3]; Tmax
  Tmax: 1 h
Clinical [3]; T½
  half-life: 2.85 h
[4]; 2 mg TID, 401 randomized, S241.3.009
  Number of subjects who died: 0 n (%)
[4]; female, in vivo
  Constipation: 17%
[4]; in vivo
  Abdominal pain aggravated: five
  Incidence of bilirubin increase: 8%
  Rectal hemorrhage: three
  Suspected ischemic colitis: three
[4]; male, in vivo
  Constipation: 7%
[5]; Endpoint
  Subjects “not at all or rarely” bothered by IBS symptoms: 54%
[5]; Month 1
  Subjects worsened from Baseline, interruption of activities: 5%
  Percentage of Subjects Who Worsened from Baseline: Interruption of Activities: 5%
[5]; Month 3
  Percentage of Subjects Who Worsened from Baseline: Interruption of Activities: 3%
[5]; Month 6
  Percentage of Subjects Who Worsened from Baseline: Interruption of Activities: 2%
other
  In vivo chiral inversion to KC9945: no in vivo chiral inversion
Clinical [6]
  fraction unbound: 0.055
